What all share (type): cell-based
Assay [1] addresses T1, human Nav1.4 (Homo sapiens, UniProt P35499). Description: Automated patch-clamp, concentration-response and inactivation fits, Nav1.4 in CHO-K1. The following applies: for Nav1.4 yinf / Nav1.4 τ inact: n = 4. The method, then:
(§1) Functional modulation of recombinant human voltage-gated sodium (Nav) channels exposed to marine PbTx-3 and brevenal was assessed by automated patch-clamp electrophysiology. Neuronal Nav1.2 (CNS) and Nav1.7 (PNS), in addition to muscle Nav1.4 (skeletal) and Nav1.5 (cardiac) sodium channels, were patch-clamped in mammalian cells. Whole-cell currents mediated by human Nav1.4 and Nav1.7 overexpressed in CHO-K1 cells, as well as human Nav1.2 and Nav1.5 overexpressed in HEK293 cells, were recorded at room temperature. Currents were elicited by 25 ms test pulses to −20 mV from a holding potential (Vh) of −120 mV, delivered for 5 min at 0.1 Hz, after each full-bath solution exchange to allow current amplitude and kinetics to reach a steady state.
(§2) Current traces were scaled to maximal Ipeak and are presented as insets in Figure 2 to underline the effects (or lack thereof) of PbTx-3 and brevenal on the current kinetics of the four Nav isoforms studied. Inactivation time constants (τinact) in control and the presence of PbTx-3 and brevenal were estimated by exponential fits (see Methods) to the current decay between 15% and 85% of the depolarizing pulse. Single exponential fits adequately described τinact for the neuronal and the skeletal muscle Nav isoforms, whereas a double exponential fit was required to approximate open channel inactivation of the cardiac Nav current. Consistent with the enhancement of Ilate observed for Nav1.2, Nav1.4, and Nav1.5 in the presence of PbTx-3, significant concentration-dependent increases in the Yinf asymptote were detected (Tables S1–S3). These were mirrored by brevenal exposure in Nav1.2- and Nav1.4-mediated currents. Nevertheless, the estimated τinacts appeared insensitive to PbTx-3 and brevenal modification, with the notable exception of Nav1.4, for which high concentrations of PbTx-3 and brevenal caused a measurable slowing of the open channel inactivation time constant (Table S2).
(§3) Recording solutions: The extracellular solution contained (in mM) 140 NaCl, 5 KCl, 2 CaCl2, 2 MgCl2, 10 glucose, and 10 HEPES (pH 7.4 with NaOH, 298 ± 3 mOsmol/k g). Control intracellular solution (in mM): 60 CsF, 70 CsCl, 10 EGTA, 10 glucose, and 10 HEPES (pH 7.2 with CsOH, 285 ± 3 mOsmol/kg). Intracellular exposure to brevenal (1 μM) was achieved by including it in the control intracellular solution during chip filling.
(§4) HEK293 cells heterologously expressing human Nav1.2 (Scottish Biomedical, a kind gift from the Petrous lab, Florey Institute of Neuroscience and Mental Health, Melbourne, VIC Australia) and Nav1.5 (ChanTest Corp., Cleveland, OH, USA) were cultured in DMEM containing 10% v/v FBS and selection antibiotics to enable stable expression as per the manufacturer’s recommendation. CHOK1 expressing Nav1.4 and Nav1.7 (ChanTest) was cultured in DMEM/F12 containing 10% v/v FBS and selection antibiotics supporting stable expression as recommended by the manufacturer. Cells were maintained in a humidified 5% CO2 incubator at 37 °C, grown in T25 flasks to 70–80% confluence, and passaged every 3–4 days using TrypLE Express (Invitrogen). After harvesting with TrypLE, cells were resuspended to 10^5 cells/mL in cold extracellular solution and allowed to recover for 30 min at 4 °C before recording.
(§5) Electrophysiology: Automated patch-clamp (APC) recordings were performed in a PatchLiner Octo (Nanion Technologies GmbH, Munich, Germany) equipped with two EPC-10 quadro patch-clamp amplifiers (HEKA Electronik, Lambrecht/Pfalz, Germany). PatchControl HT (Nanion) was used for cell capture, seal formation, and establishment of the whole-cell configuration, whilst voltage was controlled and currents were sampled with PatchMaster (HEKA Electronics). Recordings were performed under the whole-cell configuration using single-hole planar medium resistance NPC-16 chips (Rchip, resistance of ~2.5 MΩ) at room temperature (22–24 °C).
(§6) Cells between passages 6 and 12 were used. […]
In general terms: The patch-clamp technique gives a direct electrical read-out from membranes.

Assay [2] has as its target T2, human Nav1.7 (Homo sapiens, UniProt Q15858). Briefly: Automated patch-clamp, concentration-response and inactivation fits, Nav1.7 in CHO-K1. On the procedure:
as §1, §2, §3, §4, §5, §6

The target of assay [3] is T1, human Nav1.4. Description: Automated patch-clamp I-V relationship (voltage dependence of activation, Gmax), Nav1.4. The method, then:
(§7) The voltage dependence of recombinant Nav channel-mediated currents exposed to PbTx-3 and brevenal was evaluated using current–voltage (I-V) relationships built for Ipeak and Ilate elicited by a standard stimulation protocol (25 ms, −100 to +60 mV, Vh −120 mV, 0.1 Hz).
[…] […] To investigate the possibility of overlapping binding of these compounds within Nav channels, Nav whole-cell currents were recorded using an intracellular solution supplemented with brevenal (Brevenali = 1 μM). After equilibration, extracellular PbTx-3o (1 μM) was applied and its modulatory effects over the current kinetics and voltage dependence of activation were compared.
(§8) Figure 4 and Figure 5 display representative current traces mediated by human recombinant Nav channels in control and upon exposure to PbTx-3 and brevenal. I-V plots from the normalized peak and late (when present) currents amplitudes (Ipeak/Ipeak^max and Ilate/Ipeak^max) were fitted to a Boltzmann function rendering the half-maximal activation potential (V0.5) and normalized macroscopic conductance (Gmax) parameters (see Section 4). The changes in V0.5 (ΔV0.5 = V0.5^Comp − V0.5^Ctr) and relative Gmax (Gmax^Rel = Gmax^Comp/Gmax^Ctr) observed in the presence of PbTx-3 and brevenal and control conditions were then calculated and compared for all assayed conditions.
as §3, §5
(§9) Peak I–V curves were fitted using:I(V) = (V − Vrev) × Gmax/(1 + exp ((V0.5 − V)/Vslope) where I is the macroscopic current, V is the command potential, Vrev is the reversal potential (mV), Gmax is the maximal conductance, V0.5 is the half-activation potential (mV), and Vslope is the slope factor (mV/e-fold).

For assay [4], the target named is T2, human Nav1.7. Description: Automated patch-clamp I-V relationship (voltage dependence of activation, Gmax), Nav1.7. On the procedure: as §7
The effects of extracellular exposure to PbTx-3 (PbTx-3o = 1 μM) and brevenal (Brevenalo = 10 μM) on the activation of Nav channels in neuronal and muscle cells were examined under normal intracellular ionic conditions. […] To investigate the possibility of overlapping binding of these compounds within Nav channels, Nav whole-cell currents were recorded using an intracellular solution supplemented with brevenal (Brevenali = 1 μM). After equilibration, extracellular PbTx-3o (1 μM) was applied and its modulatory effects over the current kinetics and voltage dependence of activation were compared.
as §8, §3, §5, §9

[5] abbreviates: test pulse −20 mV, Vh −120 mV, extracellular, n = 5.

Several values for one entry are separate records, joined by “and”; a condition that tells them apart may be missing. Equal entries are not always repeated. Where two headings read alike, the source gives them in different places.

A word on the EC50: it is the concentration that produces a half-maximal response. As usually defined, the IC50 is the concentration at which inhibition is half-maximal.

T1 sequence (P35499 whole entry): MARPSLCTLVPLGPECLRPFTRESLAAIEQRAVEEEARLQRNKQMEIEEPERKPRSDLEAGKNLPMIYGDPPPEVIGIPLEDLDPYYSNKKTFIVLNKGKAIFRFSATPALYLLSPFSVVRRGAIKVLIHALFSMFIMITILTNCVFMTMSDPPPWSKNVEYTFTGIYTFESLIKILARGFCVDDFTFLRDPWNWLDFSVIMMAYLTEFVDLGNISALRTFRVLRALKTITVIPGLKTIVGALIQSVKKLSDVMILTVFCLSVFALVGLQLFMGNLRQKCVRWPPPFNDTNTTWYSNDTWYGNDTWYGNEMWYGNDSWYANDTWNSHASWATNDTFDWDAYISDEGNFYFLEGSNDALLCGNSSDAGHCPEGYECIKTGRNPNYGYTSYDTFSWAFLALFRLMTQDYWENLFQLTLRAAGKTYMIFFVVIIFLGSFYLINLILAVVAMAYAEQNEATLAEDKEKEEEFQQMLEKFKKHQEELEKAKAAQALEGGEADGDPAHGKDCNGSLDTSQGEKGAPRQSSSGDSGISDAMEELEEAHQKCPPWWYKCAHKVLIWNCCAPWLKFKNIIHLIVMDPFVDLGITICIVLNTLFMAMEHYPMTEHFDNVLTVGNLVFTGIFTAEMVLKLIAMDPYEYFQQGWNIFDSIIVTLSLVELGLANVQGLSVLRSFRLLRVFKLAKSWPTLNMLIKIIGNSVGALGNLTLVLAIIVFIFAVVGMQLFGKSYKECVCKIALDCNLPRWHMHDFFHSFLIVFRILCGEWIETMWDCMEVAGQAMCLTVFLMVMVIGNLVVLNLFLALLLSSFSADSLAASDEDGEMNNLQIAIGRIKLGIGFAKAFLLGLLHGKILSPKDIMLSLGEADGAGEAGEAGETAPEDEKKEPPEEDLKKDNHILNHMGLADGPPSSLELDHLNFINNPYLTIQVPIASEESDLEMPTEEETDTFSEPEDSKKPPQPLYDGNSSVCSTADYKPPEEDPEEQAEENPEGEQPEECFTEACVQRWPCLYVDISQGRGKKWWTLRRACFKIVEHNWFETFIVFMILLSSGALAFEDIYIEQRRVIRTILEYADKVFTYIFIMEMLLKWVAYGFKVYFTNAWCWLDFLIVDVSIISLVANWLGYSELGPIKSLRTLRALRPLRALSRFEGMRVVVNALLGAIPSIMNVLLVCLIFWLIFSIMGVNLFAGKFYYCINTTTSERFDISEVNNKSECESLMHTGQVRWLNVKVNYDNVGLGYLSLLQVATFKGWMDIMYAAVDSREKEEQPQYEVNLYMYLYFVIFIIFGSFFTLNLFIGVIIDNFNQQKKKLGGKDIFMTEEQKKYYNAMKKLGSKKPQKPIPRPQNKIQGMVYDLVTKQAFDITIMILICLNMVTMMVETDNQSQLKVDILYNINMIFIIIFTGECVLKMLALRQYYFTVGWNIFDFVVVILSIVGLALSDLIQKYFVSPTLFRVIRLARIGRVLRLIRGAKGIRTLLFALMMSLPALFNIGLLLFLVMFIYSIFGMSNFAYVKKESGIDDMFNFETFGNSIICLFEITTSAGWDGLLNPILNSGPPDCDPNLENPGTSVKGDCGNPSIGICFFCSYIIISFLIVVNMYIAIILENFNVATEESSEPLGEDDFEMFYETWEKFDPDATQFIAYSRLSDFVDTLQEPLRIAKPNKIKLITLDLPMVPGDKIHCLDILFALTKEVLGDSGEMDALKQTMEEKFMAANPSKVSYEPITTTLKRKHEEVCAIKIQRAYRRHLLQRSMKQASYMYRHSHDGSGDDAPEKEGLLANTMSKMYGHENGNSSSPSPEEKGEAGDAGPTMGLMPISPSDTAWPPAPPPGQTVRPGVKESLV
T2 sequence (Q15858 whole entry): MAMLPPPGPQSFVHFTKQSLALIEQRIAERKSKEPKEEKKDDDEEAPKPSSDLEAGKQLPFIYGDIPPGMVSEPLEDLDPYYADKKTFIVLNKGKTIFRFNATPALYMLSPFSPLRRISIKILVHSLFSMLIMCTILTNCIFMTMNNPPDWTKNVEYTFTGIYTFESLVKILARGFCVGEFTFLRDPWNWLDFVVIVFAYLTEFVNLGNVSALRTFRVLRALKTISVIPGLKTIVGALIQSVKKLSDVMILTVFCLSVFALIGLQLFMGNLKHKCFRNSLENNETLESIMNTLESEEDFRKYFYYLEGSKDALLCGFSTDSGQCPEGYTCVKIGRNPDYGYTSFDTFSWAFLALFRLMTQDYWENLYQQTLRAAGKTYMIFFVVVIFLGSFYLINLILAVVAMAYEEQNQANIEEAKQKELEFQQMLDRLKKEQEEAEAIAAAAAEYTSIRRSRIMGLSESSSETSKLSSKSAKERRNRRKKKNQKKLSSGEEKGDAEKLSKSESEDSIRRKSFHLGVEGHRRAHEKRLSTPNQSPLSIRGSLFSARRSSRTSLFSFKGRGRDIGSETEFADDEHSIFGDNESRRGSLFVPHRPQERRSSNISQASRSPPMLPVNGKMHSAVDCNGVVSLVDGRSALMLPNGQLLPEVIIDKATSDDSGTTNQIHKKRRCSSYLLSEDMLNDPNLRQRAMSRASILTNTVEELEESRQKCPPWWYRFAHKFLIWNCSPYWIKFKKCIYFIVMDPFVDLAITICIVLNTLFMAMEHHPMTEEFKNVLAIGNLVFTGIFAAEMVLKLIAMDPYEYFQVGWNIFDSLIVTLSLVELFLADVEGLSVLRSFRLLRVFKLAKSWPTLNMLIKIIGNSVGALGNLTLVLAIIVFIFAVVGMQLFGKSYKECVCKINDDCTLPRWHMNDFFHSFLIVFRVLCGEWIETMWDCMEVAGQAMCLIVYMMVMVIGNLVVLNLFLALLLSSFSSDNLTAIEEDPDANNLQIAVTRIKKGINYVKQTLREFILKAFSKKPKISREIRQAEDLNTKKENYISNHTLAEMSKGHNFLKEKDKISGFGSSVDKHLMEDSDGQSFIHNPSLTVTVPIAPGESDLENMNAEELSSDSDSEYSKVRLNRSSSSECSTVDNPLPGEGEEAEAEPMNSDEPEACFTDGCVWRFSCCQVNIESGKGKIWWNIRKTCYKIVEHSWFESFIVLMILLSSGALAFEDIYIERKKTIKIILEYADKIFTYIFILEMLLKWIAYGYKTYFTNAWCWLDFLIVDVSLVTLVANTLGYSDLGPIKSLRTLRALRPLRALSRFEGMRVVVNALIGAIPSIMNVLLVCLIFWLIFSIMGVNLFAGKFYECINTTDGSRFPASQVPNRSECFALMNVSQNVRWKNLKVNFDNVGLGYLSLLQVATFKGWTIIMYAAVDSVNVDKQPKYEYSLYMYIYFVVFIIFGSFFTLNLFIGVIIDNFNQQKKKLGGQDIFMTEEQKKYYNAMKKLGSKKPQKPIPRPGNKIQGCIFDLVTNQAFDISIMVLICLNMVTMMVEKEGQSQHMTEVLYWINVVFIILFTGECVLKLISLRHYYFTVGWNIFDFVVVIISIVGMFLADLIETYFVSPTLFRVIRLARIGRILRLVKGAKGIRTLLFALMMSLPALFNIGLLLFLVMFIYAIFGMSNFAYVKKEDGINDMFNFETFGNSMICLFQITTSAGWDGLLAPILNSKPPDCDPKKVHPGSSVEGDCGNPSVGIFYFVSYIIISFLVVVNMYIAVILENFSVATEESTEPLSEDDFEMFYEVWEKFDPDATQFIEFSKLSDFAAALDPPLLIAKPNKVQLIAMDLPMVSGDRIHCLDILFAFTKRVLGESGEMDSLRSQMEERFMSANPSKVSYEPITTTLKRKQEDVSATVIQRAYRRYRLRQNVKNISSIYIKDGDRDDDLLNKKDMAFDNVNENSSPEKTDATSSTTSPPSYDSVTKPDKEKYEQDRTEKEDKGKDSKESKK

Turning to `C=C(CO)C[C@@H]1C[C@H](O)[C@]2(C)OC3CC4OC5C[C@]6(C)O[C@]7(C)CCC8OC9C[C@]%10(C)OC%11C(C)=CC(=O)OC%11CC%10OC9C[C@@H](C)C8OC7CC6O[C@@]5(C)C/C=C\C4OC3CC2O1` (stereo partly drawn) [PbTx-3, Brevetoxin PbTx-3], the “Nav1.4 Ipeak FC^Max (maximal fold change)” value on human Nav1.4 [1] is listed as 0.03 ± 0.03. The EC50 on human Nav1.4 [1] (read-out: EC50, enhancement of Nav1.4-mediated Ilate) was 4 nM. Also, on human Nav1.4 [1] (read-out: Nav1.4 Ilate EC50), the EC50 turned out to be 4.1 nM. Also, the EC50 at human Nav1.4 [1] (read-out: Nav1.4 Ipeak EC50) worked out at 0.91 nM. Further, at human Nav1.7 [2], the “Nav1.7 Ilate FC^Max (maximal fold change)” value is given as 0.6 ± 0.1; the “Nav1.7 Ipeak FC^Max (maximal fold change)” value is listed as 0.4 ± 0.1; the Nav1.7 yinf came out at 0.04±0.01; the “Nav1.7 τ inact” value was 0.60 ± 0.05 ms and 0.63 ± 0.04 ms and 0.66 ± 0.11 ms. Besides, on human Nav1.7 [2] (read-out: IC50, inhibition of Nav1.7 Ilate), the IC50 is 34 nM. Besides, the EC50 at human Nav1.7 [2] (read-out: Nav1.7 Ipeak EC50) is 0.16 nM. Also, at human Nav1.4 [3], the “Gmax^Rel of Nav1.4” value is 0.3 ± 0.05 and 0.4 ± 0.1; the “hyperpolarizing shift in V0.5 of Nav1.4” value amounted to 9.2 ± 1.5 mV; the “inhibition of Nav1.4 Gmax” value was ~ 70%; the “inhibition of Nav1.4 Ipeak” value is “completely inhibited”. Further, at human Nav1.4 [3], the “ΔV0.5 of Nav1.4 activation” value is 3.1 ± 2.6 mV. Besides, on human Nav1.7 [4], the “decrease in Nav1.7 maximal conductance” value is ~ 70%, the “leftward shift in activation ΔV0.5 of Nav1.7” value is given as 6.8 ± 0.7 mV and the “shift in the voltage dependence of activation of Nav1.7” value is on record as −10.0 ± 0.6 mV.

`C=C/C=C\CC[C@H]1O[C@H]2CC[C@@]3(C)O[C@H]4[C@@H](O)C[C@@]5(C)O[C@@H](CC/C=C(C)/C(C)=C/C=O)[C@@H](C)C[C@H]5O[C@@H]4C[C@@H]3O[C@@H]2CC[C@@]1(C)O` [Brevenal]: the Nav1.4 yinf is listed as 0.19±0.03 on human Nav1.4 [1] (10^-5 M), 0.14±0.03 on human Nav1.4 [1] (10^-6 M) and 0.09±0.01 at human Nav1.4 [1] (10^-9 M). For the same compound, the “Nav1.4 τ inact” value on human Nav1.4 [1] (10^-5 M) came out at 1.16 ± 0.15 ms; at human Nav1.4 [1] (10^-9 M), 0.71 ± 0.11 ms. In addition, the “fold lower potency than PbTx-3 at enhancing Nav1.4-mediated Ilate” value at human Nav1.4 [1] (Brevenal EC50 vs PbTx-3 EC50) is reported as ~ 25 fold. Also, the 50% effective concentration (EC50) came out at 100 nM at human Nav1.4 [1] (enhancement of late current, −20 mV, Vh −120 mV, n = 5, read-out: Nav1.4 Ilate EC50) and 7.7 nM at human Nav1.4 [1] (inhibition of peak current, −20 mV, Vh −120 mV, n = 5, read-out: Nav1.4 Ipeak EC50). The “Nav1.4 Ilate FC^Max (maximal fold change)” value was determined as 4.1 ± 0.8 at human Nav1.4 [1] (setting [5]) and 4.1 on human Nav1.4 [1] (test pulse −20 mV, Vh −120 mV, extracellular, n = 5, listed as brevenal). Also, at human Nav1.4 [1] (setting [5]), the “Nav1.4 Ipeak FC^Max (maximal fold change)” value was found to be 0.1 ± 0.1. Further, the Nav1.7 yinf on human Nav1.7 [2] (10^-5 M, n = 4) was determined as 0.07±0.01; at human Nav1.7 [2] (10^-6 M, n = 4) it was 0.07±0.01; at human Nav1.7 [2] (10^-9 M, n = 4) it was 0.07±0.01. In addition, the “Nav1.7 τ inact” value at human Nav1.7 [2] (10^-5 M, n = 4) came out at 0.93 ± 0.09 ms; on human Nav1.7 [2] (10^-6 M, n = 4) it was 0.85 ± 0.06 ms; on human Nav1.7 [2] (10^-9 M, n = 4) it was 0.76 ± 0.05 ms. For the same compound, the “modulation of Nav1.7 currents” value at human Nav1.7 [2] (up to 30 μM) was “did not modulate”. Moreover, the “inhibition of Nav1.4 Gmax” value on human Nav1.4 [3] (Brevenalo 1 μM) is ~ 70%. In addition, at human Nav1.4 [3] (Brevenalo 1 μM, n = 7), the “Gmax^Rel of Nav1.4” value was 0.3 ± 0.02. Further, the “depolarizing shift in V0.5 of Nav1.4” value on human Nav1.4 [3] (Brevenalo 1 μM, n = 7) amounted to 4.9 ± 1.1 mV. For the same compound, the “Nav1.4 V0.5” value on human Nav1.4 [3] (Ctro:Brevenali, n = 4, control −31.8 ± 0.5 mV) is −26.4 ± 2.8 mV. Moreover, on human Nav1.4 [3] (brevenal 1 μM in the intracellular solution), the “right shift of Nav1.4 activation vs control intracellular” value is listed as ~ 5 mV. Further, the “Nav1.7 V0.5” value at human Nav1.7 [4] (Brevenali-occupied channels (intracellular 1 μM), n = 4, control −20.0 ± 2.4 mV) was −16.6 ± 1.7 mV. For the same compound, the “decrease in Nav1.7 Gmax” value on human Nav1.7 [4] (Brevenalo 10 μM) was ~ 10%. Besides, at human Nav1.7 [4] (Brevenalo 10 μM, n = 5), the “Gmax^Rel of Nav1.7” value is recorded as 0.9 ± 0.1. The “shift in V0.5 of Nav1.7” value at human Nav1.7 [4] (Brevenalo 10 μM, n = 6) is −4.5 ± 0.4 mV.

Values taken from paper PMC10382042, “Brevetoxin versus Brevenal Modulation of Human Nav1 Channels” (Marine Drugs, 2023).
